7 molecules from US8309734B2 (Hoffmann-La Roche Inc., priority 2008, dated 2012) can be followed below.

The target in the test is T1, human GPBAR1 receptor (Homo sapiens, UniProt Q8TDU6).
T1 construct: expressed in transfected cells
T1 sequence (Q8TDU6 1-330): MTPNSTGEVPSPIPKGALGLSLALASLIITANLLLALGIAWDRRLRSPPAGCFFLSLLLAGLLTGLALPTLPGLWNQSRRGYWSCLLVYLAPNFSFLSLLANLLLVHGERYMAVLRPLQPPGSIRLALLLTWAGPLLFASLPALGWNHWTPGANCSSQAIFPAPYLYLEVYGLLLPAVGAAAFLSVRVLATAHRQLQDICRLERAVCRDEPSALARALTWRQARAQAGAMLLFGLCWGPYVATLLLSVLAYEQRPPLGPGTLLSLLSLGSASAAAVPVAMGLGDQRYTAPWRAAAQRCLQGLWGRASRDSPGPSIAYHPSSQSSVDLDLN
Put plainly: functional cAMP assay in CHO-dhfr(minus) cells expressing human GPBAR1 receptors. Type of test: cell-based. Particulars: cAMP increase (TR-FRET) in CHO-dhfr(minus) cells expressing human GPBAR1; compounds incubated 30 min at 30° C.
For the molecule `O=C(O)CCNC(=O)CCc1cc(Cl)c(Oc2ncccc2C(=O)N2CCN(C3CC3)c3ccccc32)cc1Cl` [Example 179, 3-(3-{2,5-Dichloro-4-[3-(4-cyclopropyl-3,4-dihydro-2H-quinoxaline-1-carbonyl)-pyridin-2-yloxy]-phenyl}-propionylamino)-propionic acid], the half-maximal effective concentration (EC50) amounted to 0.041 µM. For the molecule `O=C(O)C1CCCN1C(=O)CCc1cc(Cl)c(Oc2ncccc2C(=O)N2CCN(C3CC3)c3ccccc32)cc1Cl` (stereo not shown) [Example 180, 1-(3-{2,5-Dichloro-4-[3-(4-cyclopropyl-3,4-dihydro-2H-quinoxaline-1-carbonyl)-pyridin-2-yloxy]-phenyl}-propionyl)-pyrrolidine-2-carboxylic acid], the EC50 came out at 0.071 µM. Molecule `O=C(O)CCNC(=O)CCCc1cc(Cl)c(Oc2ncccc2C(=O)N2CCN(C3CC3)c3ccccc32)cc1Cl` [Example 181, 3-(4-{2,5-Dichloro-4-[3-(4-cyclopropyl-3,4-dihydro-2H-quinoxaline-1-carbonyl)-pyridin-2-yloxy]-phenyl}-butyrylamino)-propionic acid] had an EC50 of 0.091 µM. The molecule `COC(=O)c1cc(Cl)c(Oc2ncccc2C(=O)N2CCN(C3CC3)c3ccccc32)cc1Cl` [Example 182, 2,5-Dichloro-4-[3-(4-cyclopropyl-3,4-dihydro-2H-quinoxaline-1-carbonyl)-pyridin-2-yloxy]-benzoic acid methyl ester] had an EC50 of 0.181 µM. `COC(=O)CNC(=O)c1cc(Cl)c(Oc2ncccc2C(=O)N2CCN(C3CC3)c3ccccc32)cc1Cl` [Example 183, {2,5-Dichloro-4-[3-(4-cyclopropyl-3,4-dihydro-2H-quinoxaline-1-carbonyl)-pyridin-2-yloxy]-benzoylamino}-acetic acid methyl ester] returned an EC50 of 0.341 µM. As for `O=C(c1ccccc1Oc1cc(Cl)ccc1Cl)N1CCN(C2CC2)c2ccccc21` [Example 184, (4-Cyclopropyl-3,4-dihydro-2H-quinoxalin-1-yl)-[2-(2,5-dichloro-phenoxy)-phenyl]-methanone], the response was half-maximal at 0.022 µM (EC50). To `O=C(c1ccncc1Oc1cc(Cl)ccc1Cl)N1CCOc2ccccc21` [Example 185, [3-(2,5-Dichloro-phenoxy)-pyridin-4-yl]-(2,3-dihydro-benzo[1,4]oxazin-4-yl)-methanone] belongs 0.092 µM.

Broadly, the EC50 is the midpoint of the concentration-response curve.
